Marks after values point to notes of the source that are not given here.
Tested on: severe traumatic brain injury (sTBI) in rats
Assay: HPLC of purine-pyrimidine / energy metabolites in rat brain after sTBI (Example 4)
Assay type: in vivo
Method: The effects of daily sub-cutaneous injections of dextran sulfate on glutamate excitotoxicity and mitochondrial function after severe traumatic brain injury (sTBI) in rats were evaluated by high-performance liquid chromatography (HPLC) analysis of frozen brain samples.
The experimental protocol used in this study was approved by the Ethical Committee of the Catholic University of Rome, according to international standards and guidelines for animal care. Male Wistar rats of 300-350 g body weight (b.w.) were fed with standard laboratory diet and water ad libitum in a controlled environment.
They were divided into three groups: • 1) n=6 animals subjected to sTBI, with drug administration after 30 minutes and sacrifice at 2 days post-TBI (Acute phase 1) • 2) n=6 animals subjected to severe-TBI, with drug administration after 30 minutes and sacrifice at 7 days post-TBI (Acute phase 2). • 3) n=6 animals subjected to severe-TBI, with drug administration after 3 days and sacrifice at 7 days post-TBI (Chronic phase).
As the anesthetic mixture, animals received 35 mg/kg b.w. ketamine and 0.25 mg/kg b.w. midazolam by i.p. injection. sTBI was induced by dropping a 450 g weight from 2 m height on to the rat head that had been protected by a metal disk previously fixed on the skull, according to the “weight drop” impact acceleration model (Marmarou et al., A new model of diffuse brain injury in rats. Part I: Pathophysiology and biomechanics. J Neurosurg. 1994; 80: 291-300). […] At the end of each period of treatment, rats were anesthetized again and then immediately sacrificed.
The drug treatment was a subcutaneous injection of 0.5 ml of dextran sulfate (Tikomed AB, Viken, Sweden, WO 2016/076780; 15 mg/kg) and administered according to the aforementioned schematic protocol.
An in vivo craniectomy was performed in all animals during anesthesia, after carefully removing the rat's skull, the brain was exposed and removed with a surgical spatula and quickly dropped in liquid nitrogen. After the wet weight (w.w.) determination, tissue preparation was affected as previously disclosed (Tavazzi et al., Cerebral oxidative stress and depression of energy metabolism correlate with severity of diffuse brain injury in rats. Neurosurgery. 2005; 56: 582-589; Vagnozzi et al., Temporal window of metabolic brain vulnerability to concussions: mitochondrial-related impairment-part I. Neurosurgery. 2007; 61: 379-388; Tavazzi et al., Temporal window of metabolic brain vulnerability to concussions: oxidative and nitrosative stresses-part II. Neurosurgery. 2007; 61: 390-395; Amorini et al., Severity of experimental traumatic brain injury modulates changes in concentrations of cerebral free amino acids. J Cell Mol Med. 2017; 21: 530-542.). Briefly, whole brain homogenization was performed with 7 ml of ice-cold, nitrogen-saturated, precipitating solution composed by CH3CN+10 mM KH2PO4, pH 7.40, (3:1; v:v), and using an Ultra-Turrax set at 24,000 rpm/min (Janke & Kunkel, Staufen, Germany). After centrifugation at 20,690×g, for 10 min at 4° C., the clear supernatants were saved, pellets were supplemented with 3 ml of the precipitating solution and homogenized again as described above. A second centrifugation was performed (20,690×g, for 10 min at 4° C.), pellets were saved, supernatants combined with those previously obtained, extracted by vigorous agitation with a double volume of HPLC-grade CHCl3 and centrifuged as above. The upper aqueous phases containing water-soluble low-molecular weight compounds were collected, subjected to chloroform washings for two more times (this procedure allowed the removal of all the organic solvent and of any lipid soluble compound from the buffered tissue extracts), adjusted in volumes with 10 mM KH2PO4, pH 7.40, to have ultimately aqueous 10% tissue homogenates and saved at −80° C. until assayed. […]

[1] = Acute phase 1 (15 mg/kg s.c. 30 min after sTBI, sacrifice 2 days post-TBI)
[2] = Acute phase 2 (15 mg/kg s.c. 30 min after sTBI, sacrifice 7 days post-TBI)

In the case of dextran sulfate, the ADO concentration [1] is reported as 71.67 ± 15.87 nmol/g (w.w.), the ADP concentration [1] is reported as 279.34 ± 29.59^b nmol/g (w.w.) and the ADP-ribose concentration [1] is reported as 137.87 ± 43.18^a nmol/g (w.w.). For the same substance, the AMP concentration [1] was 53.61 ± 17.91^a,c,j nmol/g (w.w.), the ATP concentration [1] was 1464.25 ± 99.09^a,h nmol/g (w.w.) and the CDP choline concentration [1] was 10.93 ± 3.22^b,h nmol/g (w.w.). The CDP concentration [1] was 25.53 ± 6.83^a,c nmol/g (w.w.), the CMP concentration [1] was 30.12 ± 9.97^a,h nmol/g (w.w.) and the CTP concentration [1] was 18.98 ± 6.58^a,g nmol/g (w.w.). For the same substance, the CoA-SH concentration [1] was 21.61 ± 3.42^a,h nmol/g (w.w.), the GDP concentration [1] was 158.72 ± 24.57^a nmol/g (w.w.) and the GDP glucose concentration [1] was 38.71 ± 6.86 nmol/g (w.w.). For the same substance, the GMP concentration [1] was 177.00 ± 32.39^a,g nmol/g (w.w.), the GSH concentration [1] was 2649.50 ± 397.31^a,d nmol/g (w.w.) and the GSSG concentration [1] was 185.21 ± 48.10 nmol/g (w.w.). The GTP concentration [1] was 255.29 ± 45.21^a,g nmol/g (w.w.), the IMP concentration [1] was 67.71 ± 10.63^g,i nmol/g (w.w.) and the MDA concentration [1] was 12.47 ± 2.09^a,c,g nmol/g (w.w.). For the same substance, the NAA concentration [1] was 6147.91 ± 989.12^a nmol/g (w.w.), the NADH concentration [1] was 15.49 ± 2.05^c,j nmol/g (w.w.) and the NADPH concentration [1] was 6.22 ± 1.73 nmol/g (w.w.). The “NADP^+ concentration” value [1] was 17.95 ± 3.28^a nmol/g (w.w.), the “NAD^+ concentration” value [1] was 404.63 ± 51.10^a,c,i nmol/g (w.w.) and the NO2 concentration [1] was 216.03 ± 41.74^a nmol/g (w.w.). The NO3 concentration [1] was 210.64 ± 91.95^d nmol/g (w.w.), the UDP concentration [1] was 61.83 ± 10.23^a,g nmol/g (w.w.) and the UDP-Gal concentration [1] was 119.45 ± 12.50 nmol/g (w.w.). For the same substance, the UDP-GalNac concentration [1] was 19.17 ± 4.01^a nmol/g (w.w.), the UDP-Glc concentration [1] was 32.14 ± 4.59^g nmol/g (w.w.) and the UDP-GlcNac concentration [1] was 95.85 ± 19.73^h,i nmol/g (w.w.). The UMP concentration [1] was 107.80 ± 21.62 nmol/g (w.w.), the UTP concentration [1] was 123.46 ± 15.42^d nmol/g (w.w.) and the acetyl-CoA concentration [1] was 21.56 ± 6.22^a,g,i nmol/g (w.w.). The adenine concentration [1] was 44.82 ± 6.31^a,d,g nmol/g (w.w.), the ascorbic acid concentration [1] was 3733.10 ± 277.88^a,d nmol/g (w.w.) and the creatinine concentration [1] was 24.55 ± 3.20^b,g,i nmol/g (w.w.). For the same substance, the cytidine concentration [1] was 15.40 ± 3.04 nmol/g (w.w.), the cytosine concentration [1] was 17.69 ± 2.50^b,d nmol/g (w.w.) and the guanine concentration [1] was 4.80 ± 1.24^b nmol/g (w.w.). For the same substance, the guanosine concentration [1] was 20.71 ± 5.66 nmol/g (w.w.), the hypoxanthine concentration [1] was 14.47 ± 2.87^a nmol/g (w.w.) and the inosine concentration [1] was 92.55 ± 31.20^c nmol/g (w.w.). The malonyl-CoA concentration [1] was 12.33 ± 1.82^b nmol/g (w.w.), the orotic acid concentration [1] was 8.80 ± 2.45^b,h,j nmol/g (w.w.) and the thymidine concentration [1] was 0.69 ± 0.11 nmol/g (w.w.). For the same substance, the uracil concentration [1] was 14.56 ± 5.44 nmol/g (w.w.), the uric acid concentration [1] was 23.62 ± 3.77^a,d,h nmol/g (w.w.) and the uridine concentration [1] was 76.35 ± 12.85^a,c nmol/g (w.w.). The xanthine concentration [1] was 9.46 ± 2.34^d nmol/g (w.w.), the β-pseudouridine concentration [1] was 6.65 ± 1.30^g,i nmol/g (w.w.) and the ADO concentration [2] was 82.11 ± 16.51^a nmol/g (w.w.). The ADP concentration [2] was 264.07 ± 28.29^b,e,j nmol/g (w.w.), the ADP-ribose concentration [2] was 141.96 ± 23.56^a,e,j nmol/g (w.w.) and the AMP concentration [2] was 57.70 ± 23.01^a,e,j nmol/g (w.w.). The ATP concentration [2] was 1632.23 ± 90.07^a,e,j nmol/g (w.w.), the CDP choline concentration [2] was 6.91 ± 1.86 nmol/g (w.w.) and the CDP concentration [2] was 24.29 ± 6.76^a nmol/g (w.w.). For the same substance, the CMP concentration [2] was 15.68 ± 2.12^f,j nmol/g (w.w.), the CTP concentration [2] was 32.63 ± 3.99^e,i nmol/g (w.w.) and the CoA-SH concentration [2] was 30.57 ± 6.02^f nmol/g (w.w.). The GDP concentration [2] was 126.70 ± 31.35^a,j nmol/g (w.w.), the GDP glucose concentration [2] was 49.25 ± 10.33^a nmol/g (w.w.) and the GMP concentration [2] was 91.47 ± 12.35^e,i nmol/g (w.w.). For the same substance, the GSH concentration [2] was 2821.50 ± 242.82^a,e nmol/g (w.w.), the GSSG concentration [2] was 219.54 ± 53.36 nmol/g (w.w.) and the GTP concentration [2] was 336.65 ± 35.18^a,e,j nmol/g (w.w.). For the same substance, the IMP concentration [2] was 102.63 ± 22.09^a nmol/g (w.w.), the MDA concentration [2] was 4.82 ± 1.73^a,e,i nmol/g (w.w.) and the NAA concentration [2] was 7262.84 ± 749.73^a,e nmol/g (w.w.). The NADH concentration [2] was 13.12 ± 4.19^e nmol/g (w.w.), the NADPH concentration [2] was 7.05 ± 2.21 nmol/g (w.w.) and the “NADP^+ concentration” value [2] was 21.27 ± 4.19^b,e,j nmol/g (w.w.). For the same substance, the “NAD^+ concentration” value [2] was 401.18 ± 34.53^a,e,i nmol/g (w.w.), the NO2 concentration [2] was 226.40 ± 30.95^b nmol/g (w.w.) and the NO3 concentration [2] was 198.56 ± 25.93^e,i nmol/g (w.w.). For the same substance, the UDP concentration [2] was 40.38 ± 8.50^a,i nmol/g (w.w.) and the UDP-Gal concentration [2] was 145.14 ± 27.76 nmol/g (w.w.).
